In brackets after ≈: the same amount, converted by molar mass.
Assays:
Test in all cases: ≥ marks a high value that may be exact or a test limit, other limits are often not marked, values filed in µg/mL are converted to µM
Escherichia coli 55B5 = test system: Escherichia coli 55B5
Escherichia coli UB1005 = test system: Escherichia coli UB1005
Pseudomonas aeruginosa = test system: Pseudomonas aeruginosa
Salmonella typhimurium = test system: Salmonella typhimurium
Staphylococcus aureus = test system: Staphylococcus aureus
Bacillus cereus = test system: Bacillus cereus
[1] = test system: Bacillus subtilis ATCC 6633
[2] = test system: Candida albicans ATCC 36232
[3] = test system: Escherichia coli KCTC 2433
Escherichia coli = test system: Escherichia coli
[4] = test system: Klebsiella pneumoniae ATCC 10031
Lactococcus lactis = test system: Lactococcus lactis
[5] = test system: Micrococcus luteus ATCC 4698
[6] = test system: Proteus mirabilis ATCC 25933
[7] = test system: Pseudomonas aeruginosa ATCC 9027
[8] = test system: Shigella dysenteriae ATCC 9752
[9] = test system: Staphylococcus aureus KCTC 3881
[10] = test system: Staphylococcus epidermidis ATCC 12228
Acinetobacter sp. = test system: Acinetobacter sp.
[11] = test system: Escherichia coli NCTC 10418
[12] = test system: Escherichia coli NCTC 8007
Klebsiella aerogenes = test system: Klebsiella aerogenes
Klebsiella sp. = test system: Klebsiella sp.
Proteus mirabilis = test system: Proteus mirabilis
Providencia stuartii = test system: Providencia stuartii
[13] = test system: Staphylococcus aureus NCTC 10571
[14] = test system: Acholeplasma laidlawii A-EF22
[15] = test system: Mycoplasma mycoides ssp. mycoides SC KH3J
Spiroplasma citri R8A2 = test system: Spiroplasma citri R8A2
[16] = test system: Spiroplasma floricola BNR 1
[17] = test system: Spiroplasma melliferum BC3
Candida albicans 105 = test system: Candida albicans 105
Candida albicans 3153A = test system: Candida albicans 3153A
[18] = test system: Enterococcus faecalis ATCC 29212
Escherichia coli DC2 = test system: Escherichia coli DC2
Escherichia coli O111 = test system: Escherichia coli O111
Escherichia coli O157:H7 = test system: Escherichia coli O157:H7
[19] = test system: Pseudomonas aeruginosa PAO1
[20] = test system: Pseudomonas aeruginosa Z61
[21] = test system: Salmonella enterica serovar Typhimurium MS4252S
[22] = test system: Salmonella enterica subsp. enterica serovar Typhimurium ATCC 14028s
[23] = test system: Staphylococcus aureus 1056
[24] = test system: Staphylococcus aureus NCTC 4163
[25] = test system: Staphylococcus aureus R147
[26] = test system: Staphylococcus epidermidis

For `CC[C@H](C)[C@H](NC(=O)[C@H](C)N)C(=O)N[C@@H](Cc1cnc[nH]1)C(=O)N[C@@H](CCCCN)C(=O)N[C@@H](CC(C)C)C(=O)N[C@@H](C)C(=O)N[C@@H](Cc1cnc[nH]1)C(=O)N[C@@H](CCCCN)C(=O)N[C@@H](CC(C)C)C(=O)N[C@@H](CC(C)C)C(=O)N[C@@H](CCCCN)C(=O)N[C@@H](CCCCN)C(=O)N[C@H](C(=O)N[C@@H](CC(C)C)C(=O)N[C@@H](CCCN=C(N)N)C(=O)N[C@@H](C)C(=O)N[C@H](C(=O)N[C@@H](CCCCN)C(=O)N[C@@H](CCCCN)C(=O)N[C@@H](CC(C)C)C(=O)N[C@@H](C)C(=O)N[C@@H](CC(N)=O)C(=O)O)C(C)C)[C@@H](C)O` [AIHKLAHKLLKKTLRAVKKLAN], which MIC (Escherichia coli 55B5) is on record?
Its MIC is 5.2 µM (≈ 13 µg/mL).

What about the MIC (Escherichia coli UB1005) of the same compound?
Its MIC is 5.5 µM (≈ 13.7 µg/mL).

And the MIC (Pseudomonas aeruginosa)?
Its MIC is 10.5 µM (≈ 26.2 µg/mL).

And the MIC (Salmonella typhimurium)?
Its MIC is 8.5 µM (≈ 21.2 µg/mL).

And the MIC (Staphylococcus aureus)?
Its MIC is 30 µM (≈ 74.9 µg/mL).

How did the MIC (Bacillus cereus) turn out when `CC[C@H](C)[C@H](NC(=O)[C@H](CC(C)C)NC(=O)[C@@H](N)Cc1ccccc1)C(=O)NCC(=O)N[C@@H](CCSC)C(=O)N[C@H](C(=O)N[C@@H](CCC(N)=O)C(=O)NCC(=O)N[C@@H](CC(C)C)C(=O)N[C@H](C(=O)N[C@H]1CSSC[C@@H](C(=O)O)NC(=O)[C@H](CCCCN)NC(=O)[C@H](CCCN=C(N)N)NC(=O)[C@H]([C@@H](C)O)NC(=O)[C@H]([C@@H](C)CC)NC(=O)[C@H](CC(C)C)NC1=O)[C@@H](C)CC)[C@@H](C)O` [FLIGMTQGLICLITRKC] was run?
Its MIC is 25.6 µM (≈ 48.9 µg/mL).

What about the MIC [1] of the same compound?
Its MIC is 13.1 µM (≈ 25 µg/mL).

And the MIC [2]?
The MIC was no less than 52.3 µM.

What about the MIC [3] of the same compound?
The MIC was 31.4 µM (≈ 59.9 µg/mL).

What about the MIC (Escherichia coli) of the same compound?
The MIC was 25.6 µM (≈ 48.9 µg/mL).

What about the MIC [4] of the same compound?
The MIC was 31.4 µM (≈ 59.9 µg/mL).

And the MIC (Lactococcus lactis)?
Its MIC is 25.6 µM (≈ 48.9 µg/mL).

And the MIC [5]?
Its MIC is 3.27 µM (≈ 6.24 µg/mL).

And the MIC [6]?
Its MIC is no less than 52.3 µM.

And the MIC [7]?
Its MIC is greater than 52.3 µM.

What about the MIC [8] of the same compound?
The MIC was 26.2 µM (≈ 49.9 µg/mL).

And the MIC [9]?
The MIC was 7.85 µM (≈ 15 µg/mL).

What about the MIC (Staphylococcus aureus) of the same compound?
The MIC was 12.8 µM (≈ 24.4 µg/mL).

And the MIC [10]?
Its MIC is 13.1 µM (≈ 25 µg/mL).

`CC(C)[C@H](NC(=O)[C@H](CCCCN)NC(=O)[C@H](CCCN=C(N)N)NC(=O)[C@@H]1CCCN1C(=O)[C@H](CC(N)=O)NC(=O)[C@H](CCCN=C(N)N)NC(=O)[C@H](CCC(N)=O)NC(=O)[C@H](Cc1c[nH]c2ccccc12)NC(=O)[C@H](CCC(N)=O)NC(=O)[C@@H](N)Cc1ccccc1)C(=O)N[C@@H](CCCN=C(N)N)C(=O)O` [FQWQRNPRKVR] was tested. Which MIC (Acinetobacter sp.) did it give?
Its MIC is 10 µM (≈ 15.1 µg/mL).

What about the MIC [11] of the same compound?
Its MIC is no less than 750 µM.

What about the MIC [12] of the same compound?
Its MIC is no less than 1000 µM.

What about the MIC (Klebsiella aerogenes) of the same compound?
The MIC was no less than 1000 µM.

What about the MIC (Klebsiella sp.) of the same compound?
The MIC was no less than 1000 µM.

What about the MIC (Proteus mirabilis) of the same compound?
Its MIC is no less than 1000 µM.

And the MIC (Providencia stuartii)?
The MIC was no less than 1000 µM.

What about the MIC [13] of the same compound?
Its MIC is no less than 250 µM.

How did the MIC [14] turn out when `CC(C)C[C@H](NC(=O)[C@H](CC(C)C)NC(=O)[C@H](CCCCN)NC(=O)[C@H](CC(C)C)NC(=O)[C@H](CC(C)C)NC(=O)[C@H](CC(C)C)NC(=O)[C@H](CCCCN)NC(=O)[C@H](CC(C)C)NC(=O)[C@H](CC(C)C)NC(=O)[C@H](CC(C)C)NC(=O)[C@H](CCCCN)NC(=O)[C@H](CC(C)C)NC(=O)[C@H](CC(C)C)NC(=O)[C@@H](N)CCCCN)C(=O)N[C@@H](CCCCN)C(=O)O` [KLLKLLLKLLLKLLK] was run?
Its MIC is 1.56 µM (≈ 2.79 µg/mL).

What about the MIC [15] of the same compound?
The MIC was 6.25 µM (≈ 11.2 µg/mL).

What about the MIC (Spiroplasma citri R8A2) of the same compound?
Its MIC is 6.25 µM (≈ 11.2 µg/mL).

And the MIC [16]?
Its MIC is 6.25 µM (≈ 11.2 µg/mL).

And the MIC [17]?
The MIC was 6.25 µM (≈ 11.2 µg/mL).

Which MIC (Candida albicans 105) does the source give for `CC[C@H](C)[C@H](NC(=O)[C@@H]1CCCN1C(=O)[C@H](CCCN=C(N)N)NC(=O)[C@@H]1CCCN1C(=O)[C@@H](NC(=O)[C@H](CCCN=C(N)N)NC(=O)[C@@H](N)CCCN=C(N)N)[C@@H](C)CC)C(=O)N[C@@H](CC(C)C)C(=O)N[C@@H](CC(C)C)C(=O)N1CCC[C@H]1C(=O)N[C@@H](Cc1c[nH]c2ccccc12)C(=O)N[C@@H](CCCN=C(N)N)C(=O)N1CCC[C@H]1C(=O)N1CCC[C@H]1C(=O)N[C@@H](CCCN=C(N)N)C(=O)N1CCC[C@H]1C(=O)N[C@H](C(=O)N1CCC[C@H]1C(=O)N[C@@H](CCCN=C(N)N)C(=O)N1CCC[C@H]1C(=O)N[C@@H](CCC(N)=O)C(=O)N1CCC[C@H]1C(=O)N[C@@H](CCC(N)=O)C(=O)N1CCC[C@H]1C(=O)N[C@H](C(=O)N1CCC[C@H]1C(=O)N[C@@H](CCCN=C(N)N)C(=O)N[C@@H](Cc1c[nH]c2ccccc12)C(=O)N[C@@H](CC(C)C)C(N)=O)[C@@H](C)CC)[C@@H](C)CC` [RRIPRPILLPWRPPRPIPRPQPQPIPRWL] here?
Its MIC is 17.8 µM (≈ 64 µg/mL).

What about the MIC (Candida albicans 3153A) of the same compound?
Its MIC is 17.8 µM (≈ 64 µg/mL).

What about the MIC [18] of the same compound?
Its MIC is 17.8 µM (≈ 64 µg/mL).

And the MIC (Escherichia coli DC2)?
Its MIC is 0.555 µM (≈ 2 µg/mL).

What about the MIC (Escherichia coli O111) of the same compound?
Its MIC is 4.44 µM (≈ 16 µg/mL).

And the MIC (Escherichia coli O157:H7)?
The MIC was 8.89 µM (≈ 32 µg/mL).

What about the MIC (Escherichia coli UB1005) of the same compound?
The MIC was 2.22 µM (≈ 8 µg/mL).

What about the MIC [19] of the same compound?
The MIC was 4.44 µM (≈ 16 µg/mL).

What about the MIC [20] of the same compound?
Its MIC is 8.89 µM (≈ 32 µg/mL).

What about the MIC [21] of the same compound?
The MIC was 0.555 µM (≈ 2 µg/mL).

And the MIC [22]?
The MIC was 8.89 µM (≈ 32 µg/mL).

What about the MIC [23] of the same compound?
Its MIC is 17.8 µM (≈ 64 µg/mL).

What about the MIC [24] of the same compound?
The MIC was 17.8 µM (≈ 64 µg/mL).

And the MIC [25]?
Its MIC is 8.89 µM (≈ 32 µg/mL).

And the MIC [26]?
The MIC was 8.89 µM (≈ 32 µg/mL).
